Assay results as given in patent US7566808B2, “Management of ophthalmologic disorders, including macular degeneration” (President and Fellows of Harvard College, priority 2004, dated 2009).

Experiments:
purified bovine mRPE65 = molecular target: T1, purified bovine mRPE65 (Bos taurus, UniProt Q28175); assay: Fluorescence titration of mRPE65 with TDT and TDH; settings: 0.952 μM mRPE65, phosphate buffered saline pH 7.4, 1% CHAPS; read-out: KD for binding to mRPE65
T1 construct: mRPE65 was extracted and purified from the bovine eye cups using a procedure described earlier; tissue W. L. Lawson Co; host or cells: bovine eye cups (retinal pigment epithelium)
T1 sequence (Q28175 whole entry): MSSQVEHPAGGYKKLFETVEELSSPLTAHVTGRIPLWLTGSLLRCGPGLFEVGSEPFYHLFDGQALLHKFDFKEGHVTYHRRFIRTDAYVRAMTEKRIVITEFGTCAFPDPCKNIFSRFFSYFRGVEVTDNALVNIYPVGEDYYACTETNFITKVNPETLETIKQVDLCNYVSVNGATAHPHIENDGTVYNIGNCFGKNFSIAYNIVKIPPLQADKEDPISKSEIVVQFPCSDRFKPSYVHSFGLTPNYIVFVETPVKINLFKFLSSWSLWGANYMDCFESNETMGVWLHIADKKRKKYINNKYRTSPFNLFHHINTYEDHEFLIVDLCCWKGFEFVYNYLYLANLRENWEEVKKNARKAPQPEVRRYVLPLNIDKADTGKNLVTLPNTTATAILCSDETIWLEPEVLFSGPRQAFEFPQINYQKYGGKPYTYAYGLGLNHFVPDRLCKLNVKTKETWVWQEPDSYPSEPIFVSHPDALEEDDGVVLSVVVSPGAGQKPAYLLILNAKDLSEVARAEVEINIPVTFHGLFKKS
Protocol: Purification of mRPE65: mRPE65 was extracted and purified from the bovine eye cups using a procedure described earlier. Protein purity was established by silver staining and Western blotting (1:4000 primary antibody—1 h at room temperature and 1:4000 secondary antibody 0.5 h at room temperature). Buffers were changed by dialysis in the request buffer overnight in a slide-a-lyser™ cassette from Pierce (10 KDa MWCO). RPE65 solutions were concentrated with an Amicon Ultra™ centrifugal filtration device (30 KDa-cutoff) from Millipore Corp. The final protein solution contained 100 mM phosphate buffered saline (150 mM NaCl) pH 7.4 and 1% CHAPSO. The protein concentration was measured by a modified Lowry method using the Bio-Rad DC protein assay protocol.
Fluorescence binding assays: RPE65 in PBS, 1% CHAPS, pH 7.4 was used in the fluorometric titration studies. All titrations were performed at 25° C. The samples in PBS buffer were excited at 280 nm and the fluorescence was scanned from 300 to 500 nm. Fluorescence measurements, using 450 μL quartz cuvettes with a 0.5 cm path length, were made at 25° C. on a Jobin Yvon Instruments, Fluoromax 2 employing the right-angle detection method.
The fluorescence of the protein solution was measured after equilibrating it at 25° C. for 10 min. […] The binding constant (KD) was calculated from the fluorescence intensity as described before (17,19). […]

Abca4−/− mice = assay: A2E accumulation after chronic treatment of Abca4−/− mice; type: in vivo; settings: 50 mg/kg i.p. twice a week for 2 months
Protocol: Tissue extraction and HPLC analysis: Posterior eye cups were pooled and homogenized in PBS using a tissue grinder. An equal volume of a mixture of chloroform/methanol (2:1) was added and the sample was extracted three times. To remove insoluble material, extracts were filtered through cotton and passed through a reversed phase (C18 Sep-Pak, Millipore) cartridge with 0.1% TFA in methanol. After removing solvent by evaporation under gas, the extract was dissolved in methanol containing 0.1% TFA, for HPLC analysis. For quantification of A2E, a Waters Alliance 2695 HPLC was employed with a Atlantis® dC18 column (Waters, 4.6×150 mm, 3 μm) and the following gradient of acetonitrile in water (containing 0.1% trifluoroacetic acid): 90-100% (0-10 min), 100% acetonitrile (10-20 min), and a flow rate of 0.8 mL/min with monitoring at 430 nm. The injection volume was 10 μL. […] Levels of A2E and iso-A2E were determined by reference to an external standard of HPLC-purified A2E/iso-A2E. […]
As shown in FIGS. 29A-D, both compounds, but especially TDT, were highly efficient in lowering A2E accumulation. FIGS. 29A-D show quantitation of A2E and iso-A2E in eye cups of Abcr −/− mice. […] FIG>29D: A2E/iso-A2E quantitation from integrated peak areas normalized to external standards. Values expressed as picomoles per eye and are based on single samples obtained by pooling 4 eyes.

Kd (purified bovine mRPE65) | Compound | effect on A2E accumulation (Abca4−/− mice)
96 ± 14 nM | CCCCCCCCCCCCCCCCNC(=O)/C=C(\C)CC/C=C(\C)CCC=C(C)C [TDH, 3,7,11-Trimethyl-dodeca-2,6,10-trienoic acid hexadecylamide] | profound effects on limiting A2E accumulation
58 ± 5 nM | CCCCCCCCCCC(=O)/C=C(\C)CC/C=C(\C)CCC=C(C)C [TDT, 13,17,21-Trimethyl-docosa-12,16,20-trien-11-one] | profound effects on limiting A2E accumulation
